# Assay results as given in patent US9133207B2, “Tetrandrine derivatives with substituted 5-carbon, preparation method and use thereof” (Hangzhou Bensheng Pharmaceutical Co., Ltd., priority 2011, dated 2015).
# Experiments:
# PC-3 (prostate cancer) = assay: Solid tumor cell growth inhibition, MTT, 72 h (Example 7); type: cell-based, human; conditions: Homo sapiens; 72 h, MTT, PC-3
# In short: (§1)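 MTT read-out of viable cells after 72 h compound treatment, reported as percent viability versus untreated control (100%). Cells seeded at 4000 per well, grown 24 h beforehand in 10% FBS DMEM high glucose, 37 °C, 5% CO2.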
# [1] = tested on: Hep-2 (laryngeal carcinoma); assay: as above; type: cell-based, human; conditions: Homo sapiens; 72 h, MTT, Hep 2
# In short: as §1
# [2] = tested on: CaES-17 (esophageal cancer cell); assay: as above; type: cell-based, human; conditions: Homo sapiens, CaEs17; 72 h, MTT, CAES-17
# In short: as §1
# [3] = tested on: PANC-1 (pancreatic cancer); assay: as above; type: cell-based, human; conditions: Homo sapiens; 72 h, MTT, PANC-1
# In short: as §1
# MG63 (osteosarcoma) = assay: as above; type: cell-based, human; conditions: Homo sapiens; 72 h, MTT, MG-63
# In short: as §1
# [4] = tested on: RKO (human colon adenocarcinoma cell); assay: as above; type: cell-based; conditions: Homo sapiens; 72 h, MTT, RKO
# In short: as §1
# [5] = tested on: Huh7 (human liver cancer cell); assay: as above; type: cell-based; conditions: Homo sapiens; 72 h, MTT, Huh-7
# In short: as §1
# [6] = tested on: Hela (human cervical cancer cell); assay: as above; type: cell-based; conditions: Homo sapiens; 72 h, MTT, Hela
# In short: as §1
# [7] = tested on: CNE (nasopharyngeal carcinoma cell); assay: as above; type: cell-based; conditions: Homo sapiens
# In short: as §1
# [8] = tested on: SK-OV-3 (ovarian cancer cell); assay: as above; type: cell-based; conditions: Homo sapiens
# In short: as §1
# [9] = tested on: MGC 803 (human gastric cancer cell); assay: as above; type: cell-based; conditions: Homo sapiens
# In short: as §1
# [10] = tested on: U87 MG (malignant glioma cell); assay: as above; type: cell-based; conditions: Homo sapiens, U-87 MG
# In short: as §1
# [11] = tested on: Becap37 (human breast cancer cell); assay: as above; type: cell-based; conditions: Homo sapiens; 72 h, MTT, Becap-37
# In short: as §1
# A549 (human lung cancer) = assay: as above; type: cell-based; conditions: Homo sapiens; 72 h, MTT, A549
# In short: as §1
# [12] = tested on: K562/adr (drug-resistant, chronic myeloid leukemia, CML); assay: Leukemia cell growth inhibition, MTT, 72 h (Example 5); type: cell-based, human; conditions: Homo sapiens, K562/Adr; 72 h, MTT
# In short: (§2)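 Seed 6000 leukemia cells per well in 1640 medium containing 10% FBS. Add test compounds at different concentrations, mix, incubate 72 hours at 37° C in 5% CO2. Determine viable cells by MTT.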
# [13] = tested on: H9 (acute lymphoblastic leukemia, ALL); assay: as above; type: cell-based, human; conditions: Homo sapiens; 72 h, MTT
# In short: as §2
# [14] = tested on: Jurkat (acute lymphoblastic leukemia, ALL); assay: as above; type: cell-based, human; conditions: Homo sapiens, Jurkat; 72 h, MTT
# In short: as §2
# [15] = tested on: Kasumi-1 (acute myeloid leukemia M2 type, AML-M2); assay: as above; type: cell-based, human; conditions: Homo sapiens, Kasumi 1
# In short: as §2
# [16] = tested on: NB4 (acute promyelocytic leukemia, AML); assay: as above; type: cell-based, human; conditions: Homo sapiens; 72 h, MTT
# In short: as §2
# [17] = tested on: RPMI8226 (multiple myeloma); assay: Multiple myeloma cell growth inhibition, MTT, 72 h (Example 6); type: cell-based, human; conditions: Homo sapiens, RPMI-8226; 72 h, MTT, RPMI8226
# In short: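 Viability was read by MTT after 72 h of compound exposure at 37 °C, 5% CO2. Each well held 6000 RPMI8226 cells in 1640 medium containing 10% fetal bovine serum, with derivatives added at various concentrations.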
IC50 (PC-3 (prostate cancer)),IC90 (PC-3 (prostate cancer)),IC50 [1],IC90 [1],IC50 [2],IC90 [2],IC50 [3],IC90 [3],IC50 (MG63 (osteosarcoma)),IC90 (MG63 (osteosarcoma)),IC50 [4],IC90 [4],IC50 [5],IC90 [5],IC50 [6],IC90 [6],IC50 [7],IC90 [7],IC50 [8],IC90 [8],other results,Compound
7.08 µg/mL,9 µg/mL,9.9 µg/mL,22.2 µg/mL,8.69 µg/mL,27 µg/mL,5.11 µg/mL,15 µg/mL,6.2 µg/mL,10.4 µg/mL,6.04 µg/mL,9.22 µg/mL,3.54 µg/mL,9.62 µg/mL,6.52 µg/mL,13 µg/mL,6.97 µg/mL,12.2 µg/mL,7.5 µg/mL,> 16 µg/mL,IC50 [9]: 5.78 µg/mL; IC90 [9]: 8 µg/mL; IC50 [10]: 3.14 µg/mL; IC90 [10]: 8 µg/mL; IC50 [11]: 8.3 µg/mL; IC90 [11]: 15 µg/mL; IC50 (A549 (human lung cancer)): 11.9 µg/mL; IC90 (A549 (human lung cancer)): > 16 µg/mL; IC50 [12]: 2.18 µg/mL; IC90 [12]: 8.89 µg/mL; IC50 [13]: 4.86 µg/mL; IC90 [13]: 7.6 µg/mL; IC50 [14]: 4.64 µg/mL; IC90 [14]: 10.9 µg/mL; IC50 [15]: 4.92 µg/mL; IC90 [15]: 15.5 µg/mL; IC50 [16]: 2.6 µg/mL; IC90 [16]: 4 µg/mL; IC50 [17]: 0.87 µg/mL; IC90 [17]: 5.13 µg/mL,COc1ccc2cc1Oc1ccc(cc1)C[C@H]1c3cc(c(OC)cc3CCN1C)Oc1c(OC)c(OC)c(COC(=O)c3cccs3)c3c1[C@H](C2)N(C)CC3 [BS-TE-215]
4.11 µg/mL,7.84 µg/mL,5.42 µg/mL,16 µg/mL,5.36 µg/mL,29.9 µg/mL,15.8 µg/mL,> 16 µg/mL,4.5 µg/mL,8.8 µg/mL,2.21 µg/mL,4.67 µg/mL,2.66 µg/mL,4.71 µg/mL,3.82 µg/mL,10.8 µg/mL,3.86 µg/mL,13.3 µg/mL,7 µg/mL,> 16 µg/mL,IC50 [9]: 2.51 µg/mL; IC90 [9]: 4 µg/mL; IC50 [10]: 1.24 µg/mL; IC90 [10]: 3.74 µg/mL; IC50 [11]: 5.8 µg/mL; IC90 [11]: 13 µg/mL; IC50 (A549 (human lung cancer)): 8.6 µg/mL; IC90 (A549 (human lung cancer)): > 16 µg/mL; IC50 [12]: 3.06 µg/mL; IC90 [12]: 16 µg/mL; IC50 [13]: 2.53 µg/mL; IC90 [13]: 7.29 µg/mL; IC50 [14]: 2.52 µg/mL; IC90 [14]: 8.03 µg/mL; IC50 [15]: 3.15 µg/mL; IC90 [15]: 8.98 µg/mL; IC50 [16]: 1.4 µg/mL; IC90 [16]: 2 µg/mL; IC50 [17]: 0.54 µg/mL; IC90 [17]: 3.14 µg/mL,COc1ccc2cc1Oc1ccc(cc1)C[C@H]1c3cc(c(OC)cc3CCN1C)Oc1c(OC)c(OC)c(COC(=O)c3ccco3)c3c1[C@H](C2)N(C)CC3 [BS-TE-216]
